In US20250281449A1, “NITROGEN-CONTAINING ANALOGS OF SALINOMYCIN FOR USE IN MULTIPLE MYELOMA (MM)” (Centre National de la Recherche Scientifique, priority 2021, published 2025):

Legend:
primary MM cells = experiment: Assay on primary MM cells of patients (flow cytometry); format: cell-based, human; details: n=5, with IL-6
Method: (§1) Primary MM cells were treated with Ironomycin (A) or AM-23 (B) and incubated during 96H with IL-6. The toxicity on MM cells and non-MM cells was analyzed by flow cytometry and expressed in % of control.
(§2) Bone marrow samples were collected after patients' written informed consent in accordance with the Declaration of Helsinki and institutional research board approval from Montpellier University hospital. Cells are obtained from […] of 5 patients with MM. Cells are obtained by density gradient separation and qualified by Flow cytometry.
(§3) Cells are cultured in Gibco® RPMI-1640 (Glutamax) medium (#6187-010) with 10% FBS at a density of 0.5×10^6 Cell/mL with 2 ng/mL of interleukin-6. Cells are seeded 24H after thawing and treated with various compounds during 72H.
(§4) Total cells were counted with trypan blue and stained with the panel CD38-APC, CD138-PE (Beckman coulter) and analyzed by flow cytometry (Fortessa cytometer, BD Pharmigen). Tumorous MM cells were gated on CD38+ and CD138+.

MM cell lines = experiment: Cell growth inhibition in panel of MM cell lines; format: cell-based, human; details: 96H
Method: (§5) The panel of 17 HMCL cell lines were incubated with increasing concentrations of Ironomycin (A), AM23 (B) or vehicle for 96H.
(§6) HMCL cell lines were cultured for 4 days in 96-well flat-bottom microtiter plates in RPMI 1640 medium or DMEM medium, 10% or 20% FCS (control medium) in the presence of various compounds. The number of viable cells in culture was determined using the Cell Titer-Glo Luminescent Cell Viability Assay from Promega, Madison, WI, USA using a Centro LB 960 luminometer (Berthold Technologies, Bad Wildbad, Germany).
(§7) This test is based on quantitation of the intracellular ATP present, which signals the presence of metabolically active cells. Data are expressed as the mean percentage of six replicates, normalized to the untreated control.
The therapeutic interest of iron metabolism inhibitors AM5 (Ironomycin) and AM23 was further investigated using large collection of 18 MM cell lines (Moreaux J et al. Haematologica 2011; Vikova V et al. Theranostics 2019). The IC50 of Ironomycin and AM23 respectively are illustrated in the Table 5 hereunder: […]

non-MM cells = experiment: Assay on primary samples of patients, non-MM cells (flow cytometry); format: cell-based, human; details: primary samples of patients, n=5
Method: as §1, §2, §3, §4

XG6 = experiment: Cell viability assay (Cell Titer-Glo), HMCL; format: cell-based; details: Homo sapiens, XG6, 96 h
Method: as §5, §6, §7

XG-1 = experiment: Cell viability assay (Cell Titer-Glo), HMCL; format: cell-based; details: Homo sapiens, 96 h
Method: as §5, §6, §7

XG28 = experiment: Cell viability assay (Cell Titer-Glo), HMCL; format: cell-based; details: Homo sapiens, 96 h
Method: as §5, §6, §7

XG12 = experiment: Cell viability assay (Cell Titer-Glo), HMCL; format: cell-based; details: Homo sapiens, 96 h
Method: as §5, §6, §7

OPM-2 = experiment: Cell viability assay (Cell Titer-Glo), HMCL; format: cell-based; details: Homo sapiens, OPM-2, 96 h
Method: as §5, §6, §7

XG-7 = experiment: Cell viability assay (Cell Titer-Glo), HMCL; format: cell-based; details: Homo sapiens, 96 h
Method: as §5, §6, §7

MOLP-8 = experiment: Cell viability assay (Cell Titer-Glo), HMCL; format: cell-based; details: Homo sapiens, MOLP-8, 96 h
Method: as §5, §6, §7

XG20 = experiment: Cell viability assay (Cell Titer-Glo), HMCL; format: cell-based; details: Homo sapiens, 96 h
Method: as §5, §6, §7

XG21 = experiment: Cell viability assay (Cell Titer-Glo), HMCL; format: cell-based; details: Homo sapiens, 96 h
Method: as §5, §6, §7

XG24 = experiment: Cell viability assay (Cell Titer-Glo), HMCL; format: cell-based; details: Homo sapiens, 96 h
Method: as §5, §6, §7

SMILES: CC[C@@H](C(=O)[C@@H](C)[C@@H](O)[C@H](C)[C@@H]1O[C@@H]([C@@H](CC)C(=O)O)CC[C@@H]1C)[C@H]1O[C@]2(C=C[C@@H](NC3CC3)[C@]3(CC[C@@](C)([C@H]4CC[C@](O)(CC)[C@H](C)O4)O3)O2)[C@H](C)C[C@@H]1C [AM23]
- toxicity on primary MM cells of patients (primary MM cells): validated the therapeutic interest
- cell growth inhibition / toxicity on MM cell lines (MM cell lines): validated the toxicity
- cell growth inhibition / toxicity on MM cell lines (MM cell lines; listed as AM-23): kill MM cells with nanomolar concentration
- toxicity for non-tumoral cells (non-MM cells): without significant toxicity
- IC50 (XG6): 3.8 nM
- IC50 (XG-1): 21.1 nM
- IC50 (XG28): 13 nM
- IC50 (XG12): 0.8 nM
- IC50 (OPM-2): 1.4 nM
- IC50 (XG-7): 11.8 nM
- IC50 (MOLP-8): 13 nM
- IC50 (XG20): 154 nM
- IC50 (XG21): 34.3 nM
- IC50 (XG24): 8.8 nM
